Marks after values point to notes of the source that are not given here.
Assays:
[1] = tested on: S. aureus ATCC 25923; experiment: MIC by serial dilutions in broth (visible growth); format: cell-based;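 note: broth tubes inoculated at about 5×10^5 CFU/ml, incubated 16-24 h at 35 °C in air, growth judged by transmitted light against an unexposed refrigerated inoculum tube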
Procedure: The minimum inhibitory concentration (MIC) and minimum bactericidal concentration (MBC) of the antibacterial composition enriched for the light isotope zinc ^64Zne was evaluated in the experiment. […] S. aureus ATCC 25923, E. coli ATCC 25922 and P. aeruginosa ATCC 27853 were used as test cultures.
The studies were carried out using the method of serial dilutions in broth. To determine sensitivity of microorganisms to the antibacterial composition, 0.5 ml of broth was placed into each tube. The number of tubes was determined based on the desired number of dilutions and was increased by one for the “negative” control (no test composition). Series of two-fold serial dilutions of the test variants of the antibacterial composition were used and concentrations ranging from 450 mcg ^64Zne/ml to 0.000107 mcg ^64Zne/ml were obtained.
Reference test strains of S. aureus ATCC 25923, E. coli ATCC 25922 and P. aeruginosa ATCC 27853 were incubated in Mueller-Hinton liquid broth at 37° C. for 24 hours. Standard bacterial suspension equivalent to 0.5 McFarland standard diluted 100-fold with the broth was used for the inoculation of the tubes after which the concentration of microorganism in it was approximately 10^6 CFU/ml.
0.5 ml of inoculum was added to each tube containing 0.5 ml of the appropriate dilution of a solution of the ^64Zn-enriched salt of interest. […] The final concentration of the microorganism in each tube was approximately 5×10^5 CFU/ml.
The tubes were incubated at 35° C. in air for 16-20 or 20-24 hours (depending on the bacterial strain).
To determine the presence of microorganism growth the test tubes with inoculum were viewed under transmitted light. Transmitted light was measured by spectrophotometry. The growth of culture in the presence of antibacterial compositions based on ^64Zne was compared with the reference test tube (“negative” control), containing the original inoculum and stored in the refrigerator. The MIC was determined as the lowest concentration of ^64Zne that inhibits visible growth of the microorganism. Both gram-positive (S. aureus) and gram-negative bacteria (P. aeruginosa, E. coli) were used in the experiments described below.
That is, ^64Zne in the form of a salt was compared with a composition that contains zinc with a natural distribution of isotopes. […] Relevant samples containing salt of natural zinc with EDDA and natural zinc sulfate were used for the comparison.
The following commercial antibacterial medications were used for the study: azithromycin and ceftriaxone and norfloxacin. The initial concentration of 3000 mcg/ml was used for the samples of all the above compounds. […] Serial dilutions of the above antibacterial compounds were also prepared in the same way as for the antibacterial composition of the invention. The same pathogenic strains of S. aureus ATCC 25923, E. coli ATCC 25922, P. aeruginosa ATCC 27853 were used for the study.

[2] = tested on: E. coli ATCC 25922; experiment: MIC by serial dilutions in broth (visible growth); format: cell-based;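 note: broth tubes inoculated to about 5×10^5 CFU/ml, incubated at 35 °C for 16-24 h, growth judged by transmitted light versus an untreated inoculum reference tube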
[3] = tested on: E. coli ATCC 25922; experiment: MBC by plating tube contents on Mueller-Hinton medium; format: cell-based
Procedure: (§1) To evaluate the bactericidal action of the antibacterial composition based on light isotope ^64Zne the minimum bactericidal concentration (MBC) was determined by plating out 0.1 ml of the contents of each tube containing the antibacterial composition on Mueller-Hinton medium. The incubation was at 37° C. for 24 h.
(§2) The MBC of the test samples was determined as the lowest concentration at which there was no growth on Mueller-Hinton agar medium.

[4] = tested on: P. aeruginosa ATCC 27853; experiment: as above; format: cell-based
Procedure: as §1, §2

[5] = tested on: S. aureus ATCC 25923; experiment: as above; format: cell-based
Procedure: as §1, §2

[6] = tested on: P. aeruginosa ATCC 27853; experiment: MIC by serial dilutions in broth (visible growth)
[7] = concentration of ^64Zne, Tables 1-5
[8] = Table 7, ^64Zne vs natural zinc
[9] = Table 8, ^64Zne vs natural zinc

NC(CCC(=O)[O-])C(=O)[O-].[64Zn+2] (stereo not shown) [^64Zne glutamate]
0.0057 µg/mL: MIC [2, 7]
−: visible growth ([1]; ^64Zne 0.046 mcg/ml) | visible growth ([1]; ^64Zne 0.092 mcg/ml) | visible growth ([1]; ^64Zne 0.18 mcg/ml) | visible growth ([1]; ^64Zne 0.37 mcg/ml) | visible growth ([1]; ^64Zne 0.73 mcg/ml) | visible growth ([1]; ^64Zne 1.46 mcg/ml) | visible growth ([1]; ^64Zne 2.93 mcg/ml) | visible growth ([1]; ^64Zne 5.86 mcg/ml) | visible growth ([1]; ^64Zne 11.72 mcg/ml) | visible growth ([1]; ^64Zne 23.44 mcg/ml) | visible growth ([1]; ^64Zne 46.88 mcg/ml) | visible growth ([1]; ^64Zne 93.75 mcg/ml) | visible growth ([1]; ^64Zne 187.5 mcg/ml) | visible growth ([1]; ^64Zne 375 mcg/ml) | visible growth ([2]; ^64Zne 0.0057 mcg/ml) | visible growth ([2]; ^64Zne 0.011 mcg/ml) | visible growth ([2]; ^64Zne 0.023 mcg/ml) | visible growth ([2]; ^64Zne 0.046 mcg/ml) | visible growth ([2]; ^64Zne 0.092 mcg/ml) | visible growth ([2]; ^64Zne 0.18 mcg/ml) | visible growth ([2]; ^64Zne 0.37 mcg/ml) | visible growth ([2]; ^64Zne 0.73 mcg/ml) | visible growth ([2]; ^64Zne 1.46 mcg/ml) | visible growth ([2]; ^64Zne 2.93 mcg/ml) | visible growth ([2]; ^64Zne 5.86 mcg/ml) | visible growth ([2]; ^64Zne 11.72 mcg/ml) | visible growth ([2]; ^64Zne 23.44 mcg/ml) | visible growth ([2]; ^64Zne 46.88 mcg/ml) | visible growth ([2]; ^64Zne 93.75 mcg/ml) | visible growth ([2]; ^64Zne 187.5 mcg/ml) | visible growth ([2]; ^64Zne 375 mcg/ml) | visible growth ([2]; ^64Zne 750 mcg/ml)
best results: bacteriostatic activity (in words) [6]
0.0458 µg/mL: MIC [1, 7]
0.046* mcg ^64Zne/ml: MBC ([5]; Table 6)
>750 mcg ^64Zne/ml: MBC ([4]; Table 6)
+: visible growth ([1]; ^64Zne 0.00018 mcg/ml) | visible growth ([1]; ^64Zne 0.00036 mcg/ml) | visible growth ([1]; ^64Zne 0.00072 mcg/ml) | visible growth ([1]; ^64Zne 0.0014 mcg/ml) | visible growth ([1]; ^64Zne 0.0029 mcg/ml) | visible growth ([1]; ^64Zne 0.0057 mcg/ml) | visible growth ([1]; ^64Zne 0.011 mcg/ml) | visible growth ([1]; ^64Zne 0.023 mcg/ml) | visible growth ([2]; ^64Zne 0.00018 mcg/ml) | visible growth ([2]; ^64Zne 0.00036 mcg/ml) | visible growth ([2]; ^64Zne 0.00072 mcg/ml) | visible growth ([2]; ^64Zne 0.0014 mcg/ml) | visible growth ([2]; ^64Zne 0.0029 mcg/ml)
0.37* mcg ^64Zne/ml: MBC ([3]; Table 6)
0.183 µg/mL: MIC [6, 7]

O=S(=O)([O-])[O-].[Zn+2] [Natural zinc - sulfate, natural zinc sulfate, reference compound]
750 zinc/ml: MIC [6, 8]
93.75 zinc/ml: MIC [1, 8]
>750 mcg zinc/ml: MBC [3, 9] | MBC [4, 9] | MBC [5, 9]
187.5 zinc/ml: MIC [2, 8]

O=C([O-])CC(NCCNC(CC(=O)O)C(=O)O)C(=O)[O-].[64Zn+2] (stereo not shown) [^64Zne EDDS, ^64Zne salt of ethylenediamine-N,N′-disuccinic acid, chemical name 2-[2-[[(1)-1-carboxy-2-carboxylatoethyl]amino]ethylamino]butanedioate]
0.73* mcg ^64Zne/ml: MBC ([5]; Table 6)
2.9296 mcg zinc/ml: MBC [3, 9]
0.18 zinc/ml: MIC [2, 8]
0.366 µg/mL: MIC [1, 7]
5.86 zinc/ml: MIC [6, 8]
best results: bacteriostatic activity (in words) [6]
375 mcg ^64Zne/ml: MBC ([4]; Table 6)
1.465 µg/mL: MIC [6, 7]
+: visible growth ([1]; ^64Zne 0.00036 mcg/ml) | visible growth ([1]; ^64Zne 0.00072 mcg/ml) | visible growth ([1]; ^64Zne 0.0014 mcg/ml) | visible growth ([1]; ^64Zne 0.0029 mcg/ml) | visible growth ([1]; ^64Zne 0.0057 mcg/ml) | visible growth ([1]; ^64Zne 0.011 mcg/ml) | visible growth ([1]; ^64Zne 0.023 mcg/ml) | visible growth ([1]; ^64Zne 0.046 mcg/ml) | visible growth ([2]; ^64Zne 0.00036 mcg/ml) | visible growth ([2]; ^64Zne 0.00072 mcg/ml) | visible growth ([2]; ^64Zne 0.0014 mcg/ml) | visible growth ([2]; ^64Zne 0.0029 mcg/ml) | visible growth ([2]; ^64Zne 0.0057 mcg/ml) | visible growth ([2]; ^64Zne 0.011 mcg/ml)
0.7324 mcg zinc/ml: MBC [5, 9]
0.73 zinc/ml: MIC [1, 8]
satisfactory bactericidal activity: bactericidal activity (in words) [4]
−: visible growth ([1]; ^64Zne 0.37 mcg/ml) | visible growth ([1]; ^64Zne 0.73 mcg/ml) | visible growth ([1]; ^64Zne 1.46 mcg/ml) | visible growth ([1]; ^64Zne 2.93 mcg/ml) | visible growth ([1]; ^64Zne 5.86 mcg/ml) | visible growth ([1]; ^64Zne 11.72 mcg/ml) | visible growth ([1]; ^64Zne 23.44 mcg/ml) | visible growth ([1]; ^64Zne 46.88 mcg/ml) | visible growth ([1]; ^64Zne 93.75 mcg/ml) | visible growth ([1]; ^64Zne 187.5 mcg/ml) | visible growth ([1]; ^64Zne 375 mcg/ml) | visible growth ([1]; ^64Zne 750 mcg/ml) | visible growth ([2]; ^64Zne 0.023 mcg/ml) | visible growth ([2]; ^64Zne 0.046 mcg/ml) | visible growth ([2]; ^64Zne 0.092 mcg/ml) | visible growth ([2]; ^64Zne 0.18 mcg/ml) | visible growth ([2]; ^64Zne 0.37 mcg/ml) | visible growth ([2]; ^64Zne 0.73 mcg/ml) | visible growth ([2]; ^64Zne 1.46 mcg/ml) | visible growth ([2]; ^64Zne 2.93 mcg/ml) | visible growth ([2]; ^64Zne 5.86 mcg/ml) | visible growth ([2]; ^64Zne 11.72 mcg/ml) | visible growth ([2]; ^64Zne 23.44 mcg/ml) | visible growth ([2]; ^64Zne 46.88 mcg/ml) | visible growth ([2]; ^64Zne 93.75 mcg/ml) | visible growth ([2]; ^64Zne 187.5 mcg/ml) | visible growth ([2]; ^64Zne 375 mcg/ml) | visible growth ([2]; ^64Zne 750 mcg/ml) | visible growth ([2]; ^64Zne 1500 mcg/ml)
0.0229 µg/mL: MIC [2, 7]
2.93* mcg ^64Zne/ml: MBC ([3]; Table 6)
375 mcg zinc/ml: MBC [4, 9]

— patent US12097215B2, “Antibacterial composition and its use in treating bacterial infections” (Vector Vitale IP LLC, priority 2017, dated 2024)
